Where two headings read alike, the source gives them in different places.

Experiment [1] has as its target T1, human CB1 receptor (Homo sapiens, UniProt P21554).
T1 construct: host or cells: CHO-RD-HGA16 cells (CHO cells overexpressing promiscuous Galpha16)
The experiment can be described thus: CB1 calcium mobilization assay (antagonist mode, against EC80 of CP55,940). Type of experiment: cell-based. Conditions: against EC80 (100 nM) of CP55,940, mean ± S.E.M., read-out: CB1 calcium assay IC50.
Protocol: CHO-RD-HGA16 cells (Molecular Devices, CA) stably expressing the human CB1 receptor were plated into 96-well black-walled assay plates at 25,000 cells/well in 100 μL of Ham's F12 (supplemented with 10% fetal bovine serum, 100 units of penicillin/streptomycin, and 100 μg/mL Normocin) and incubated overnight at 37° C., 5% CO2. Calcium 5 dye (Molecular Devices, CA) was reconstituted according to the manufacturer's instructions. The reconstituted dye was diluted 1:40 in prewarmed (37° C.) assay buffer (1×HBSS, 20 mM HEPES, 2.5 mM probenecid, pH 7.4 at 37° C.). Growth medium was removed, and the cells were gently washed with 100 μL of prewarmed (37° C.) assay buffer. […] After the pretreatment incubation period, the plate was read with a FLIPR Tetra (Molecular Devices, CA). […] Relative fluorescence units (RFU) were plotted against the log of compound concentrations. Data were fit to a three-parameter logistic curve to generate IC50 values (GraphPad Prism 6.0, CA). […] Test compound RFUs were compared to the CP55,940 Emax RFUs to generate % Emax values.
In these assays, CHO cells that overexpress the promiscuous Gα16 protein were engineered to stably express the CB1 or CB2 receptor. Compounds were evaluated for their ability to decrease the mobilization of intracellular calcium levels stimulated by CP55,940.

For experiment [2], the target named is T1, human CB1 receptor. In words: CB1 calcium mobilization assay, agonist screen. Type of experiment: cell-based. To be noted: 10,000 nM final concentration, mean ± SD. On the technique in general: A change in cytosolic calcium serves as a functional read-out for many receptors and channels.
The target in another experiment is T2, CB1 receptor (Mus musculus, UniProt P47746).
T2 construct: from tissue; host or cells: cerebellar membranes of adult male CD-1 mice
T2 sequence (P47746 whole entry): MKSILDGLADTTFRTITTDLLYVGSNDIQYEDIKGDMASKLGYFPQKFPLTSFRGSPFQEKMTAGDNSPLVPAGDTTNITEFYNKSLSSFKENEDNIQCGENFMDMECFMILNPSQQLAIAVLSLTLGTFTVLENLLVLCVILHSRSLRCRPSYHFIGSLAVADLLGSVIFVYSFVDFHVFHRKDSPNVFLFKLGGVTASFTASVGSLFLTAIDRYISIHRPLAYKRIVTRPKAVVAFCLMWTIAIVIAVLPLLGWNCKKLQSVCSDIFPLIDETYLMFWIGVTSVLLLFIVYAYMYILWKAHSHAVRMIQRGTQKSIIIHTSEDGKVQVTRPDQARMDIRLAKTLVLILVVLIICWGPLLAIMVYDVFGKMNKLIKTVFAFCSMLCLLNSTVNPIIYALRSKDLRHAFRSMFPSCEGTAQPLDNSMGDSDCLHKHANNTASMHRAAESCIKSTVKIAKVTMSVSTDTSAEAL
In words: [35S]GTP-γ-S binding assay in mouse cerebellar membranes, CP55,940-stimulated. To be noted: CP55,940 (100 nM) stimulation, mean (95% confidence interval). In kind it is biochemical.

T1 sequence (P21554 whole entry): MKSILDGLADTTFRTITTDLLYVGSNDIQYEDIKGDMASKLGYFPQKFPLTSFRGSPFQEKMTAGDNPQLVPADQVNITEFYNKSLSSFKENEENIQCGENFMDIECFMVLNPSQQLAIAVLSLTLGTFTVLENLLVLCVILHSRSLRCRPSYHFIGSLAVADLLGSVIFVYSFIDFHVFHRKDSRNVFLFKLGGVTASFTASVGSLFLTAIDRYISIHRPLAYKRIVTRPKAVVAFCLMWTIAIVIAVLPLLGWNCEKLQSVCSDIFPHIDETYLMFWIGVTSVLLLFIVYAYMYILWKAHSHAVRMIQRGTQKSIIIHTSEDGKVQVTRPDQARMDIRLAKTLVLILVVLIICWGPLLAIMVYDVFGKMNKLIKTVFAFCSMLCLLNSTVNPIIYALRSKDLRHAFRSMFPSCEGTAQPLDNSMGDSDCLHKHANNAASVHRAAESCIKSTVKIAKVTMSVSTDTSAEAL

By IC50 is commonly meant the point on the concentration scale where inhibition reaches its midpoint. On to `Cn1cccc1-c1cccc(NC(=O)Nc2ccc(Cl)cc2)c1` [Compound 68, 3-(4-Chlorophenyl)-1-[3-(1-methyl-1H-pyrrol-2-yl)phenyl]urea], for which the IC50 worked out at 165 ± 14 nM on human CB1 receptor [1] (Table 1) and 665 nM on CB1 receptor. Further, the “CB1 calcium assay Agonist screen (% CP55, 940 Emax)” value on human CB1 receptor [2] (Table 1) is given as 3.4 ± 2.9 % CP55, 940 Emax.
Take `O=C(Nc1ccc(Cl)cc1)Nc1cccc(N2CCC2)c1` [Compound 80, 3-[3-(Azetidin-1-yl)phenyl]-1-(4-chlorophenyl)urea]: the IC50 was determined as 35 ± 5 nM at human CB1 receptor [1] (Table 1) and 1380 nM at CB1 receptor.
For `O=C(Nc1ccc(Cl)cc1)Nc1cccc(-c2ncc[nH]2)c1` [Compound 72, 3-(4-Chlorophenyl)-1-[3-(1H-imidazol-2-yl)phenyl]urea], the IC50 at human CB1 receptor [1] (Table 1) is 529 ± 98 nM; at CB1 receptor, 343 nM. Besides, the “CB1 calcium assay Agonist screen (% CP55, 940 Emax)” value on human CB1 receptor [2] (Table 1) is given as 4.3 ± 0.5 % CP55, 940 Emax.
On to `O=C(Nc1ccc(Cl)cc1)Nc1cccc(-c2cccc(-c3ccccc3)c2)c1` [Compound 38, 3-(4-Chlorophenyl)-1-[3-(3-phenylphenyl)phenyl]urea], for which the IC50 on human CB1 receptor [1] (Table 1) amounted to 195 ± 40 nM; on CB1 receptor, 559 nM. For the same compound, the “CB1 calcium assay Agonist screen (% CP55, 940 Emax)” value on human CB1 receptor [2] (Table 1) is on record as 0.5 ± 0.2 % CP55, 940 Emax.
Consider `O=C(Nc1ccc(Cl)cc1)Nc1cccc(-c2cnc3ccccc3c2)c1` [Compound 44, 3-(4-Chlorophenyl)-1-[3-(quinolin-3-yl)phenyl]urea], for which the figures for the IC50 on human CB1 receptor [1] (Table 1) and on CB1 receptor were 516 ± 70 nM and 651 nM, respectively. Further, the “CB1 calcium assay Agonist screen (% CP55, 940 Emax)” value at human CB1 receptor [2] (Table 1) is reported as 2.6 ± 1.2 % CP55, 940 Emax.
Turning to `O=C(Nc1ccc(Cl)cc1)Nc1cccc(-c2ccc(Cl)c(Cl)c2)c1` [Compound 32, 3-(4-Chlorophenyl)-1-[3-(3,4-dichlorophenyl)phenyl]urea], the IC50 was 30 ± 4 nM at human CB1 receptor [1] (Table 1) and 464 nM on CB1 receptor. Moreover, on human CB1 receptor [2] (Table 1), the “CB1 calcium assay Agonist screen (% CP55, 940 Emax)” value was 10.4 ± 2.1 % CP55, 940 Emax.
Take `O=C(Nc1ccc(Cl)cc1)Nc1cccc(-c2cncs2)c1` [Compound 51, 3-(4-Chlorophenyl)-1-[3-(1,3-thiazol-5-yl)phenyl]urea]: the figures for the IC50 at human CB1 receptor [1] (Table 1) and on CB1 receptor were 94 ± 9 nM and 331 nM, respectively. Also, the “CB1 calcium assay Agonist screen (% CP55, 940 Emax)” value on human CB1 receptor [2] (Table 1) is 8.1 ± 3.1 % CP55, 940 Emax.
Consider `O=C(Nc1ccc(Cl)cc1)Nc1cccc(-c2cccc([N+](=O)[O-])c2)c1` [Compound 29, 3-(4-Chlorophenyl)-1-[3-(3-nitrophenyl)phenyl]urea], for which the IC50 at human CB1 receptor [1] (Table 1) came out at 27 ± 2 nM; on CB1 receptor, 452 nM.
Consider `O=C(Nc1ccc(Cl)cc1)Nc1cccc(-c2ccc3c(c2)OCO3)c1` [Compound 26, 1-[3-(2H-1,3-Benzodioxol-5-yl)phenyl]-3-(4-chlorophenyl)urea], for which the IC50 turned out to be 70 ± 14 nM on human CB1 receptor [1] (Table 1) and 619 nM at CB1 receptor. Also, the “CB1 calcium assay Agonist screen (% CP55, 940 Emax)” value at human CB1 receptor [2] (Table 1) is listed as 9.8 ± 3.5 % CP55, 940 Emax.
For the compound `O=C(Nc1ccc(Cl)cc1)Nc1cccc(N2CCCCC2)c1` [Compound 76, 3-(4-Chlorophenyl)-1-[3-(piperidin-1-yl)phenyl]urea], the IC50 at human CB1 receptor [1] (Table 1) was found to be 174 ± 31 nM. In addition, the “CB1 calcium assay Agonist screen (% CP55, 940 Emax)” value on human CB1 receptor [2] (Table 1) was 1.1 ± 0 % CP55, 940 Emax.
Regarding `CCN(CC)c1cccc(NC(=O)Nc2ccc(Cl)cc2)c1` [Compound 86, 3-(4-Chlorophenyl)-1-[3-(diethylamino)phenyl]urea], at human CB1 receptor [1] (Table 1), the IC50 came out at 297 ± 37 nM. Moreover, the “CB1 calcium assay Agonist screen (% CP55, 940 Emax)” value on human CB1 receptor [2] (Table 1) is 20.9 ± 0.2 % CP55, 940 Emax.
As to `Cc1cccc(-c2cccc(NC(=O)Nc3ccc(Cl)cc3)c2)c1` [Compound 27, 3-(4-Chlorophenyl)-1-[3-(3-methylphenyl)phenyl]urea], the IC50 at CB1 receptor was 456 nM.
For the compound `O=C(Nc1ccc(Cl)cc1)Nc1cccc(N2CCCCCC2)c1` [Compound 83, 1-[3-(Azepan-1-yl)phenyl]-3-(4-chlorophenyl)urea], on human CB1 receptor [1] (Table 1), the IC50 amounted to 350 ± 37 nM. Further, the “CB1 calcium assay Agonist screen (% CP55, 940 Emax)” value on human CB1 receptor [2] (Table 1) is 18.6 ± 1.1 % CP55, 940 Emax.
Consider `O=C(Nc1ccc(Cl)cc1)Nc1cccc(N2CCOCC2)c1` [Compound 77, 1-(4-Chlorophenyl)-3-[3-(morpholin-4-yl)phenyl]urea], for which, on human CB1 receptor [1] (Table 1), the IC50 stood at 360 ± 64 nM. Moreover, the “CB1 calcium assay Agonist screen (% CP55, 940 Emax)” value at human CB1 receptor [2] (Table 1) was 12.4 ± 1.8 % CP55, 940 Emax.
As to `O=C(Nc1ccc(Cl)cc1)Nc1cccc(-c2ccc(F)cc2F)c1` [Compound 35, 3-(4-Chlorophenyl)-1-[3-(2,4-difluorophenyl)phenyl]urea], the IC50 came out at 18 ± 1 nM at human CB1 receptor [1] (Table 1) and 353 nM on CB1 receptor.
`O=C(Nc1ccc(Cl)cc1)Nc1ccc(-c2ccccc2)cc1` [Compound 59, 3-(4-Chlorophenyl)-1-(4-phenylphenyl)urea]: the IC50 at human CB1 receptor [1] (Table 2) came to 66 ± 9 nM. For the same compound, the “CB1 calcium assay Agonist screen (% CP55, 940 Emax)” value at human CB1 receptor [2] (Table 2) is recorded as 21 ± 4 % CP55, 940 Emax.
Regarding `O=C(Nc1ccc(Cl)cc1)Nc1cccc(-c2cccc(O)c2)c1` [Compound 24, 3-(4-Chlorophenyl)-1-[3-(3-hydroxyphenyl)phenyl]urea], the IC50 on human CB1 receptor [1] (Table 1) is 840 ± 130 nM. Also, on human CB1 receptor [2] (Table 1), the “CB1 calcium assay Agonist screen (% CP55, 940 Emax)” value is 9.8 ± 1.6 % CP55, 940 Emax.
Regarding `O=C(Nc1ccc(Cl)cc1)Nc1cccc(N2CCCC2)c1` [Compound 78, 1-(4-Chlorophenyl)-3-[3-(pyrrolidin-1-yl)phenyl]urea], the IC50 on human CB1 receptor [1] (Table 1) was found to be 40 ± 4 nM. In addition, the “CB1 calcium assay Agonist screen (% CP55, 940 Emax)” value on human CB1 receptor [2] (Table 1) is on record as 0.6 ± 0.5 % CP55, 940 Emax.
For the compound `O=C(Nc1ccc(Cl)cc1)Nc1cccc(N2CCC(F)(F)CC2)c1` [Compound 81, 3-(4-Chlorophenyl)-1-[3-(4,4-difluoropiperidin-1-yl)phenyl]urea], the IC50 at human CB1 receptor [1] (Table 1) came out at 92 ± 9 nM. Moreover, on human CB1 receptor [2] (Table 1), the “CB1 calcium assay Agonist screen (% CP55, 940 Emax)” value is listed as 14.0 ± 0.6 % CP55, 940 Emax.
Take `O=C(Nc1ccc(Cl)cc1)Nc1cccc(-c2ccc3c(c2)Cc2ccccc2-3)c1` [Compound 45, 3-(4-Chlorophenyl)-1-[3-(9H-fluoren-2-yl)phenyl]urea]: the IC50 on human CB1 receptor [1] (Table 1) amounted to 1260 ± 160 nM. Besides, the “CB1 calcium assay Agonist screen (% CP55, 940 Emax)” value on human CB1 receptor [2] (Table 1) was −0.1 ± 0.1 % CP55, 940 Emax.
On to `O=C(Nc1ccc(Cl)cc1)Nc1cccc(-c2ccc3ccccc3n2)c1` [Compound 43, 3-(4-Chlorophenyl)-1-[3-(quinolin-2-yl)phenyl]urea], for which the “CB1 calcium assay Agonist screen (% CP55, 940 Emax)” value on human CB1 receptor [2] (Table 1) is on record as 4.5 ± 0.7 % CP55, 940 Emax. On CB1 receptor, this compound showed an IC50 of 1890 nM.
Consider `O=C(Nc1ccc(Cl)cc1)Nc1cccc(-c2ccoc2)c1` [Compound 46, 3-(4-Chlorophenyl)-1-[3-(furan-3-yl)phenyl]urea], for which the IC50 came to 41 ± 9 nM at human CB1 receptor [1] (Table 1) and 440 nM on CB1 receptor.
As for `O=C(Nc1ccc(Cl)cc1)Nc1cccc(-c2ccc3ccccc3c2)c1` [Compound 42, 3-(4-Chlorophenyl)-1-[3-(naphthalen-2-yl)phenyl]urea], the “CB1 calcium assay Agonist screen (% CP55, 940 Emax)” value on human CB1 receptor [2] (Table 1) is recorded as 6.9 ± 0.5 % CP55, 940 Emax. Moreover, the IC50 at CB1 receptor was 1520 nM.
For `O=C(Nc1ccc(Cl)cc1)Nc1cccc(-c2ccc(-c3ccccc3)cc2)c1` [Compound 39, 3-(4-Chlorophenyl)-1-[3-(4-phenylphenyl)phenyl]urea], the IC50 at human CB1 receptor [1] (Table 1) came to 1340 ± 370 nM. For the same compound, the “CB1 calcium assay Agonist screen (% CP55, 940 Emax)” value on human CB1 receptor [2] (Table 1) was −0.7 ± 2.4 % CP55, 940 Emax.
For the compound `COc1cccc(NC(=O)Nc2ccc(Cl)cc2)c1` [Compound 91, 3-(4-Chlorophenyl)-1-(3-methoxyphenyl)urea], the IC50 on human CB1 receptor [1] (Table 1) was determined as 520 ± 36 nM. On human CB1 receptor [2] (Table 1), the “CB1 calcium assay Agonist screen (% CP55, 940 Emax)” value is 13.6 ± 2.4 % CP55, 940 Emax.
Regarding `COc1cccc(-c2cccc(NC(=O)Nc3ccc(Cl)cc3)c2)n1` [Compound 15, 3-(4-Chlorophenyl)-1-[3-(6-methoxypyridin-2-yl)phenyl]urea], at human CB1 receptor [1] (Table 1), the IC50 was determined as 231 ± 14 nM. Besides, the “CB1 calcium assay Agonist screen (% CP55, 940 Emax)” value on human CB1 receptor [2] (Table 1) is reported as 2.4 ± 0.2 % CP55, 940 Emax.

The values are drawn from patent US11084781B2, “Diarylureas as CB1 allosteric modulators” (Research Triangle Institute, priority 2017, dated 2021).
